For one compound, Kd results are on record in ChEMBL document CHEMBL5230157, “The natural anthraquinone dye purpurin exerts antibacterial activity by perturbing the FtsZ assembly” (Bioorg Med Chem, 2021).

This assay concerns the target T1, Cell division protein FtsZ (Bacillus subtilis, UniProt A5Z1V5).
T1 sequence (A5Z1V5 whole entry): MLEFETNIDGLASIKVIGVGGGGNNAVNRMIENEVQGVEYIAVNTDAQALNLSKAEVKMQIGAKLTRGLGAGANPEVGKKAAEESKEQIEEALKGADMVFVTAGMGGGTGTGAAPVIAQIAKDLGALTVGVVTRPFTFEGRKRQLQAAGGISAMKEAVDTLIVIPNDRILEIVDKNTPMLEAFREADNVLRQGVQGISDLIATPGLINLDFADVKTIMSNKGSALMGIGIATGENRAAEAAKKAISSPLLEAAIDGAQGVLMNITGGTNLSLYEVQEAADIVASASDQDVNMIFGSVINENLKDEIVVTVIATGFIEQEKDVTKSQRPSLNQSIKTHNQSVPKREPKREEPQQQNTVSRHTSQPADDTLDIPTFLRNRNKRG
Nature of the assay: Binding affinity to Bacillus subtilis FtsZ assessed as dissociation constant of intrinsic tryptophan quenching incubated for 30 mins by double reciprocal plot analysis.

`CC1=CC(=O)c2c(O)cccc2C1=O` [PLUMBAGIN]: the Kd came to 15.8 µM.

As a reminder, the Kd is a measure of binding affinity in units of concentration.
